ChEMBL document CHEMBL3751808, “Gambogic acid induces apoptotic cell death in T98G glioma cells” (Bioorg Med Chem Lett, 2016)
Calls of active or inactive are those of the source. The rule behind the calls is not given here.

Tests used:
[1] = tested on: T98G; assay: Antiproliferative activity against human T98G cells after 24 hrs by EZ-Tox assay; assay type: functional, cell-based
[2] = tested on: T98G; assay: Antiproliferative activity against human T98G cells assessed as cell viability after 72 hrs by MTT assay; assay type: functional, cell-based
[3] = tested on: T98G; assay: Induction of apoptosis in human T98G cells assessed as necrotic cells at 200 nM after 24 hrs using annexin V/propidium iodide staining by FACS analysis; assay type: functional
[4] = tested on: T98G; assay: Induction of apoptosis in human T98G cells assessed as decrease in cell viability at 200 nM after 24 hrs using propidium iodide /Hoechst staining by FACS analysis (reference value: 2.9%); assay type: functional
[5] = tested on: T98G; assay: Induction of apoptosis in human T98G cells assessed as increase of cleaved caspase-3 level at 200 to 400 nM after 10 to 24 hrs by Western blot analysis; assay type: functional, cell-based
[6] = tested on: T98G; assay: Induction of apoptosis in human T98G cells assessed as decrease in cell viability at 200 nM after 24 hrs using propidium iodide /Hoechst staining by FACS analysis in presence of NAC (reference value: 2.9%); assay type: functional
[7] = tested on: T98G; assay: Induction of apoptosis in human T98G cells assessed as increase of ROS level at 200 nM after 8 hrs using DCFH-DA staining by FACS analysis (reference value: 2.4%); assay type: functional
[8] = tested on: T98G; assay: Induction of apoptosis in human T98G cells assessed as decrease of Bcl-2 level at 200 to 400 nM after 10 to 24 hrs by Western blot analysis; assay type: functional, cell-based
[9] = tested on: T98G; assay: Induction of apoptosis in human T98G cells assessed as early-stage apoptotic cells at 200 nM after 24 hrs using annexin V/propidium iodide staining by FACS analysis; assay type: functional
[10] = tested on: T98G; assay: Induction of apoptosis in human T98G cells assessed as increase of cleaved caspase-8 level at 200 to 400 nM after 10 to 24 hrs by Western blot analysis; assay type: functional, cell-based
[11] = tested on: T98G; assay: Induction of apoptosis in human T98G cells assessed as increase of ROS level at 400 nM after 8 hrs using DCFH-DA staining by FACS analysis in presence of NAC (reference value: 2.4%); assay type: functional
[12] = tested on: T98G; assay: Induction of apoptosis in human T98G cells assessed as increase of Bax level at 200 to 400 nM after 10 to 24 hrs by Western blot analysis; assay type: functional, cell-based
[13] = tested on: T98G; assay: Induction of apoptosis in human T98G cells assessed as necrotic cells at 400 nM after 24 hrs using annexin V/propidium iodide staining by FACS analysis; assay type: functional
[14] = tested on: T98G; assay: Induction of apoptosis in human T98G cells assessed as increase of cleaved caspase-9 level at 200 to 400 nM after 10 to 24 hrs by Western blot analysis; assay type: functional, cell-based
[15] = tested on: T98G; assay: Induction of apoptosis in human T98G cells assessed as increase of cleaved PARP level at 200 to 400 nM after 10 to 24 hrs by Western blot analysis; assay type: functional, cell-based
[16] = tested on: T98G; assay: Induction of apoptosis in human T98G cells assessed as increase of ROS level at 200 to 400 nM after 10 hrs using DCFH-DA staining by fluorescence microscopic analysis; assay type: functional, cell-based
[17] = tested on: T98G; assay: Induction of apoptosis in human T98G cells assessed as increase of AIF level at 200 to 400 nM after 10 to 24 hrs by Western blot analysis; assay type: functional, cell-based
[18] = tested on: T98G; assay: Induction of apoptosis in human T98G cells assessed as increase of cytochrome-c protein level at 200 to 400 nM after 10 to 24 hrs by Western blot analysis; assay type: functional, cell-based
[19] = tested on: T98G; assay: Induction of apoptosis in human T98G cells assessed as increase of ROS level at 200 nM after 8 hrs using DCFH-DA staining by FACS analysis in presence of NAC (reference value: 2.4%); assay type: functional
[20] = tested on: T98G; assay: Induction of apoptosis in human T98G cells assessed as decrease in cell viability at 400 nM after 24 hrs using propidium iodide /Hoechst staining by FACS analysis (reference value: 2.9%); assay type: functional
[21] = tested on: T98G; assay: Induction of apoptosis in human T98G cells assessed as increase of ROS level at 200 to 400 nM after 10 hrs using DCFH-DA staining by fluorescence microscopic analysis in presence of NAC; assay type: functional, cell-based
[22] = tested on: T98G; assay: Induction of apoptosis in human T98G cells assessed as decrease in cell viability after 24 hrs using propidium iodide /Hoechst staining by FACS analysis; assay type: functional, cell-based
[23] = tested on: T98G; assay: Induction of apoptosis in human T98G cells assessed as decrease in cell viability at 400 nM after 24 hrs using propidium iodide /Hoechst staining by FACS analysis in presence of NAC (reference value: 2.9%); assay type: functional
[24] = tested on: T98G; assay: Induction of apoptosis in human T98G cells assessed as late-stage apoptotic cells at 200 nM after 24 hrs using annexin V/propidium iodide staining by FACS analysis; assay type: functional
[25] = tested on: T98G; assay: Induction of apoptosis in human T98G cells assessed as early-stage apoptotic cells at 400 nM after 24 hrs using annexin V/propidium iodide staining by FACS analysis; assay type: functional
[26] = tested on: T98G; assay: Induction of apoptosis in human T98G cells assessed as late-stage apoptotic cells at 400 nM after 24 hrs using annexin V/propidium iodide staining by FACS analysis; assay type: functional
[27] = tested on: T98G; assay: Induction of apoptosis in human T98G cells assessed as increase of ROS level at 400 nM after 8 hrs using DCFH-DA staining by FACS analysis (reference value: 2.4%); assay type: functional

With COc1cc(/C=C/C(=O)CC(=O)/C=C/c2ccc(O)c(OC)c2)ccc1O [CURCUMIN] the IC50 [1] was 10 µM and the IC50 [2] was 25 µM.
Molecule COc1cccc2c1C(=O)c1c(O)c3c(c(O)c1C2=O)C[C@@](O)(C(=O)CO)C[C@@H]3O[C@H]1C[C@H](N)[C@H](O)[C@H](C)O1 [DOXORUBICIN] has an IC50 [1] of 0.5 µM.
O=C(O[C@@H]1Cc2c(O)cc(O)cc2O[C@@H]1c1cc(O)c(O)c(O)c1)c1cc(O)c(O)c(O)c1 [EPIGALOCATECHIN GALLATE] showed an IC50 [1] of 166 µM.
For CC(C)=CCC[C@]1(C)C=Cc2c(O)c3c(c(CC=C(C)C)c2O1)O[C@]12C(=C[C@@H]4C[C@H]1C(C)(C)O[C@@]2(C/C=C(/C)C(=O)O)C4=O)C3=O [GAMBOGIC ACID], the Activity [3] was 4%, the Activity [4] was 33.4% and the Activity [5] was “Active”. The Activity [6] was 5.8%, the Activity [1] was “Dose-dependent effect” and the IC50 [1] was no more than 0.3 µM. The Activity [7] was 38.5%, the Activity [8] was “Active” and the Activity [9] was 32.3%. For the same molecule, the Activity [10] was “Active”, the Activity [11] was 2.6% and the Activity [12] was “Active”. For the same molecule, the Activity [13] was 27.6%, the Activity [14] was “Active” and the Activity [15] was “Active”. The Activity [16] was “Active”, the Activity [17] was “Active” and the Activity [18] was “Active”. The Activity [19] was 2.8%, the Activity [20] was 76.6% and the Activity [21] was “inactive”. For the same molecule, the Activity [22] was “Dose-dependent effect”, the Activity [23] was 6% and the Activity [24] was 8.57%. The Activity [25] was 12.6%, the Activity [26] was 13.7% and the Activity [27] was 36.5%.
